From US7250410B2, “Cyclic nucleotide phosphodiesterase inhibitors, preparation and uses thereof” (Via Pharmaceuticals, Inc., priority 2001, dated 2007) come the findings set out here.

One assay has as its target PDE4. The experiment in a line: Inhibition of PDE4, radioenzymatic phosphodiesterase assay. In kind it is biochemical, bovine. The note with it: for PDE4 percentage inhibition at 10 μM: compound at 10 μM. Put shortly:
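PDE4 partially purified from bovine aortic media by 105,000 g centrifugation and anion-exchange chromatography with an NaCl gradient. Activity measured radioenzymatically: product nucleoside separated from nucleotides by anion exchange and counted by liquid scintillation.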

A further assay concerns PDE1. The assay is described as follows: Selectivity: inhibition of PDE1, radioenzymatic phosphodiesterase assay. Format: biochemical, bovine. On the set-up: PDE1 percentage inhibition at 10 μM: unit: %. The following applies: Table 4 Selectivity; for PDE1 percentage inhibition at 10 μM: compound at 10 μM. Here is the method: (§1) A 3 g segment of bovine aortic media cut into pieces with scissors was homogenized with an ultra-turrax then a potter glass/glass homogenizer in 7 volumes by weight of buffer A containing a protease inhibitor cocktail (20 mM Tris-HCl, 0.25 M saccharose, 2 mM magnesium acetate, 1 mM dithiothreitol, 5 mM EGTA, 2000 U/ml aprotinin, 10 mg/l leupeptin and 10 mg/l soya trypsic inhibitor). The homogenizate was centrifuged at 105,000 g for 1 hour. The supernatant was loaded on a DEAE-Sephacel column (15×1.6 cm) pre-equilibrated with buffer B (buffer A without the saccharose, EGTA and protease inhibitors). The column was washed until there was no detectable absorption at 280 nm, then eluted with a linear gradient of NaCl (0–0.5 M) in buffer B. 3-ml fractions were collected and enzyme activity was determined under the conditions described hereinafter to localize the different enzymes PDE1, PDE3, PDE4 and PDE5, which were aliquoted and frozen at −80° C. (Lugnier et al., Biochem. Phamacol., 35 (1986) 1746–1751). PDE2 was prepared from bovine endothelial cells by the same methods (Lugnier and Schini, Biochem. Pharmacol. 1990, 39; 75–84).
(§2) Cyclic nucleotide phosphodiesterase activity was determined by a radioenzymatic method using tritium-labelled cyclic GMP or AMP (1 μM) as substrate (Lugnier et al., 1986). ^3H-labelled adenosine or guanosine monophosphate formed by hydrolysis of the radiolabelled cyclic nucleotide was then converted to ^3H-labelled adenosine or guanosine in a second reaction with […] in excess. The nucleoside formed was separated from the nucleotides by anion exchange chromatography. Nucleoside radioactivity was determined by liquid scintillation counting. Enzymatic incubations were carried out under conditions allowing no more than 15% hydrolysis of the substrate; each point was performed in duplicate.
(§3) The activity of the compounds was evaluated on other phosphodiesterase isoforms, particularly basal state or calmodulin-activated PDE1 from vascular smooth muscle, basal state or cyclic GMP-activated PDE2 from vascular endothelial cells, PDE3 and PDE5 from vascular smooth muscle.
(§4) The results obtained are presented in Table 4 hereinafter and are expressed as the percentage inhibition of enzymatic activity produced by […] of the tested compound.

In a further assay the target is T1, PDE2 (Bos taurus, UniProt P14099).
T1 construct: PDE2 was prepared from bovine endothelial cells by the same methods; endogenous in cells; host or cells: bovine vascular endothelial cells, DEAE-Sephacel fraction
T1 sequence (P14099 1-921): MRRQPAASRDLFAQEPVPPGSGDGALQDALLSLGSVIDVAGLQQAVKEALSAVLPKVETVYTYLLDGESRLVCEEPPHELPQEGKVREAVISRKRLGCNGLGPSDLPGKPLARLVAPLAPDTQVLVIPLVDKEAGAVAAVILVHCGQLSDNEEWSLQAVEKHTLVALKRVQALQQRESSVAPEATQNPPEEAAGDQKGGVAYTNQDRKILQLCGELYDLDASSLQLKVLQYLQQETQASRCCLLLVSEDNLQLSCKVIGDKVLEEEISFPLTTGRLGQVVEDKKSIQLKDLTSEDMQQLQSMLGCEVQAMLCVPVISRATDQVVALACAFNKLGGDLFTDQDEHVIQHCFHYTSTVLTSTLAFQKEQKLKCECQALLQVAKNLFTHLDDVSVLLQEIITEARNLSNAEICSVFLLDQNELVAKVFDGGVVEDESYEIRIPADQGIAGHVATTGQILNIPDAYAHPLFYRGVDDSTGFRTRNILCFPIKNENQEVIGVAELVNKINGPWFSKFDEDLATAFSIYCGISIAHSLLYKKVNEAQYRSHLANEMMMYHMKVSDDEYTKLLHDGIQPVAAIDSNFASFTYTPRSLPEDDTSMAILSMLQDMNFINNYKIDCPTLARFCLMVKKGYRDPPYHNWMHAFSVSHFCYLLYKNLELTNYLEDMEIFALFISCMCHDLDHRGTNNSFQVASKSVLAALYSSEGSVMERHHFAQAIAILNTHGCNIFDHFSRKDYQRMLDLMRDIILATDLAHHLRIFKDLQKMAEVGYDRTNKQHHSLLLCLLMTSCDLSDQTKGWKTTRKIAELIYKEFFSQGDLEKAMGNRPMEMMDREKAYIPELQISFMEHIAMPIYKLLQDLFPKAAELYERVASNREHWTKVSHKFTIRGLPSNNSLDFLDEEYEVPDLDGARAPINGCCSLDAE
The experiment in a line: Selectivity: inhibition of PDE2, radioenzymatic phosphodiesterase assay. Format: biochemical, bovine. The following applies: Table 4 Selectivity; for inhibition at 10 µM: compound at 10 μM, read-out: PDE2 percentage inhibition at 10 μM. Here is the method: as §1, §2, §3, §4

A further assay deals with T2, PDE3 (Bos taurus, UniProt A0A3Q1M1E8).
T2 sequence (A0A3Q1M1E8 1-1126): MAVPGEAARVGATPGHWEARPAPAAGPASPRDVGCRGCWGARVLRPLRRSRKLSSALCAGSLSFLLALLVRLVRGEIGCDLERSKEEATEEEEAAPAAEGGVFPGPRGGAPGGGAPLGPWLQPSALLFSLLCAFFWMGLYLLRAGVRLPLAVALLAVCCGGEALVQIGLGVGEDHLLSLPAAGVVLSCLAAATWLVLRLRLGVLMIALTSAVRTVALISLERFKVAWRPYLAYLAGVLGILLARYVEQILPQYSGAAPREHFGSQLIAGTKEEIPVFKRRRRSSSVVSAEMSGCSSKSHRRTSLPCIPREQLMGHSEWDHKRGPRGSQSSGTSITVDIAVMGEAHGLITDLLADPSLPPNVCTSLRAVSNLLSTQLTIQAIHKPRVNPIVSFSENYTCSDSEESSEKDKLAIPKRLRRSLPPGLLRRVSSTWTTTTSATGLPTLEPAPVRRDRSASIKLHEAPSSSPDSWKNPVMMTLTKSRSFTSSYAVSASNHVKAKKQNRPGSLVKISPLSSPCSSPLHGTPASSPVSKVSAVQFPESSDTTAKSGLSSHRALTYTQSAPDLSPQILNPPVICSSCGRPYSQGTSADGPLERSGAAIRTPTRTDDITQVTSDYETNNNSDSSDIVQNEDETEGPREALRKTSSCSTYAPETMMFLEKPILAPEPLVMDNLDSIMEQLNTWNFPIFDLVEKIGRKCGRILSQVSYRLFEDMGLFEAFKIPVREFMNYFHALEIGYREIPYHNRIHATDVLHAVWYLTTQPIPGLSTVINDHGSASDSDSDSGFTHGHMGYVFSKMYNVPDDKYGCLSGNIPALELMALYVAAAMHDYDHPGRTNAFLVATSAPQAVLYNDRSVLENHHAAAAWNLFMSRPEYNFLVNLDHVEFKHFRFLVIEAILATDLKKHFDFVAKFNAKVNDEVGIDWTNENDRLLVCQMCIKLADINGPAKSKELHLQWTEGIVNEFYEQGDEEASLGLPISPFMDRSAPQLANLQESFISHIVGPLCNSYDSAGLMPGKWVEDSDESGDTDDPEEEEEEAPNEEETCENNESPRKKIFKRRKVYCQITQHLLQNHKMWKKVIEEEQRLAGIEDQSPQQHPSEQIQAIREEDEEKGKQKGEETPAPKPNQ
The assay is described as follows: Selectivity: inhibition of PDE3, radioenzymatic phosphodiesterase assay. Format: biochemical, bovine. The following applies: read-out: PDE3 percentage inhibition at 10 μM. Here is the method:
as §1, §2, §3, §4

Another assay concerns the target T3, PDE5 (Bos taurus, UniProt Q28156).
T3 construct: localize the different enzymes PDE1, PDE3, PDE4 and PDE5, which were aliquoted and frozen; from tissue; host or cells: bovine aortic media (vascular smooth muscle), DEAE-Sephacel fraction
The assay is described as follows: Selectivity: inhibition of PDE5, radioenzymatic phosphodiesterase assay. In kind it is biochemical, bovine. The following applies: Table 4 Selectivity. Here is the method:
as §1, §2, §3, §4

A further assay relates to TNFα. The assay is described as follows: TNFα production by LPS-activated mononuclear cells from venous blood (ELISA). In kind it is cell-based. The following applies: Homo sapiens, read-out: anti-TNFα activity IC50. Here is the method:
Compounds according to the invention were assessed for anti-inflammatory properties on mononuclear cells from venous blood of healthy donors (n=4), by a protocol approved by the Alsace No. 1 Ethics Committee. More specifically, the cells were incubated for 24 hours in 24-well plates in the presence of the test compound, after activation by Salmonella Abortis Equi lipopolysaccharide (LPS) (5 pg/ml) (cf. De Groote et al., Cytokine 4, 1992, 239). After incubation, TNFα concentrations were determined in the culture supernatant by an ELISA method (Antibody Solutions, Half Moon Bay, Calif., USA).

[1] abbreviates: Table 3, formula (II), 1 μM cyclic AMP.
The mark [2] stands for this setting: Table 2, formula (XXII), 1 μM cyclic AMP.
[3] abbreviates: Table 1, formula (III), 1 μM cyclic AMP.

Molecules are shown by their SMILES. “And” between values parts separate entries of the source, which are not always exact repeats. Equal values may be shown once.

As to `CCOc1cc2c(cc1OCC)N(CC)C(=O)CN=C2c1ccccc1` [IIbg, 7,8-diethoxy-1-ethyl-5-phenyl-1,3-dihydro-2H-1,4-benzodiazepin-2-one], the half-inhibitory concentration (IC50) (as a rule, the concentration that inhibits the measured activity by half) is 0.9 µM and 1.6 µM against PDE4 (setting [1]); 0.9 µM at PDE4 (Table 4 Selectivity). The “PDE1 percentage inhibition at 10 μM” value in the assay with PDE1 was 47%. For the same compound, the figures for the inhibition at 10 µM on PDE2 and on PDE3 were 20% and 40%, respectively.

For `CCOc1cc2c(cc1OC)C(c1ccccc1)=NCC(=O)N2` [XXIIam, 8-ethoxy-7-methoxy-5-phenyl-1,3-dihydro-2H-1,4-benzodiazepin-2-one], the concentration for half-maximal inhibition (IC50) against PDE4 (setting [2]) and against PDE4 (Table 4 Selectivity) was 0.7 µM each time. Further, in the assay with PDE1, the “PDE1 percentage inhibition at 10 μM” value came out at 29%. The inhibition – broadly, the relative decrease from the control value, in per cent – at 10 µM at PDE2 is 36%; at PDE3, 36%; at PDE5 (compound at 10 μM, read-out: PDE5 percentage inhibition at 10 μM) it was 35%.

Regarding `CCOc1cc2c(cc1OC)C(c1ccccc1)=NC(Cc1cccc(C(N)=O)c1)C(=O)N2C` (stereo not drawn) [IIdh, 3-[(8-ethoxy-7-methoxy-1-methyl-2-oxo-5-phenyl-2,3-dihydro-1H-1,4-benzodiazepin-3-yl)methyl]benzamide], the IC50 against PDE4 (setting [1]) was 0.52 µM; in the assay with TNFα it was 0.1 to 1 µM.

Regarding `CCOc1cc2c(cc1OCC)C(c1ccccc1)=NC(C)C(=O)N2` (stereo not drawn) [XXIIai, 7,8-diethoxy-3-methyl-5-phenyl-1,3-dihydro-2H-1,4-benzodiazepin-2-one], the concentration for half-maximal inhibition (IC50) against PDE4 (setting [2]) and against PDE4 (Table 4 Selectivity) was 1.7 µM each time. For the same compound, the “PDE1 percentage inhibition at 10 μM” value with PDE1 was 55%. Besides, the inhibition at 10 µM was 6% on PDE2 and 55% on PDE3.

Consider `COc1cc2c(cc1OC)C(c1ccc(-c3ccco3)cc1)=NN(C)C(=O)C2` [IIIav, 1-[4-(2-furyl)phenyl]-7,8-dimethoxy-3-methyl-3,5-dihydro-4H-2,3-benzodiazepin-4-one], for which the IC50 is 0.9 µM against PDE4 (setting [3]), 0.9 µM on PDE4 (Table 4 Selectivity), 19 µM on PDE2 and 40 µM against PDE5. Further, the “PDE1 percentage inhibition at 10 μM” value in the assay on PDE1 is recorded as 49%. In addition, the inhibition at 10 µM on PDE3 is 92%.

As to `CCOc1cc2c(cc1OCC)C(CC)C(=O)N(C)N=C2c1cc2ccccc2s1` (stereo not drawn) [IIIbb, 1-(2-benzo[b]thienyl)-7,8-diethoxy-5-ethyl-3-methyl-3,5-dihydro-4H-2,3-benzodiazepin-4-one], the 50% inhibitory concentration (IC50) is 0.087 µM against PDE4 (setting [3]), 0.087 µM against PDE4 (Table 4 Selectivity), 14 µM at PDE1 and 5.7 µM against PDE5. For the same compound, the inhibition at 10 µM on PDE2 came to 25%.

On to `COc1cc2c(cc1OC)C(c1ccc(I)cc1)=NN(C)C(=O)C2` [IIIah, 1-(4-iodophenyl)-7,8-dimethoxy-3-methyl-3,5-dihydro-4H-2,3-benzodiazepin-4-one], for which the IC50 against PDE4 (setting [3]) turned out to be 3.1 µM.

`CCN1C(=O)C(Cc2ccccc2Br)N=C(c2ccccc2)c2cc(OC)c(OC)cc21` (stereo not drawn) [IIcc, 3-(2-bromobenzyl)-1-ethyl-7,8-dimethoxy-5-phenyl-1,3-dihydro-2H-1,4-benzodiazepin-2-one] showed a concentration for half-maximal inhibition (IC50) against PDE4 (setting [1]) of 4.97 µM.

On to `COc1cc2c(cc1OC)C(c1ccccc1)=NC(C)C(=O)N2` (stereo not drawn) [XXIIaq, 7,8-dimethoxy-3-methyl-5-phenyl-1,3-dihydro-2H-1,4-benzodiazepin-2-one], for which, in the assay with PDE4 (Table 2, formula (XXII)), the “PDE4 percentage inhibition at 10 μM” value is listed as 26.2%.

For the compound `COc1cc2c(cc1OC)C(c1ccccc1)=NC(CC(C)C)C(=O)N2` (stereo not drawn) [XXIIad, 7,8-dimethoxy-3-isobutyl-5-phenyl-1,3-dihydro-2H-1,4-benzodiazepin-2-one], in the assay with PDE4 (Table 2, formula (XXII)), the “PDE4 percentage inhibition at 10 μM” value is recorded as 14.9%.

In the case of `CCN1C(=O)CN=C(c2ccc(C#Cc3ccccc3)cc2)c2cc(OC)c(OC)cc21` [IIbr, 1-ethyl-7,8-dimethoxy-5-[4-(phenylethynyl)phenyl]-1,3-dihydro-2H-1,4-benzodiazepin-2-one], the half-inhibitory concentration (IC50) against PDE4 (setting [1]) is 6.6 µM and 3.8 µM.

For the compound `CCN1C(=O)C(Cc2ccc(Cl)cc2Cl)N=C(c2ccccc2)c2cc(OC)c(OC)cc21` (stereo not drawn) [IIco, 3-(2,4-dichlorobenzyl)-7,8-dimethoxy-1-ethyl-5-phenyl-1,3-dihydro-2H-1,4-benzodiazepin-2-one], in the assay with PDE4 (Table 3, formula (II)), the “PDE4 percentage inhibition at 10 μM” value is reported as 34.3%.

On to `CCN1C(=O)C(Cc2ccc(C)cc2)N=C(c2ccccc2)c2cc(OC)c(OC)cc21` (stereo not drawn) [IIdd, 1-ethyl-7,8-dimethoxy-3-(4-methylbenzyl)-5-phenyl-1,3-dihydro-2H-1,4-benzodiazepin-2-one], for which the “PDE4 percentage inhibition at 10 μM” value in the assay with PDE4 (Table 3, formula (II)) was determined as 31.5%.
